Laboratory results: PubChem BioAssay (NCI)
Where “and” joins values, the source holds several entries; their conditions need not be identical. Identical values can stand only once.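 1) Cells in 96-well plates. 2) Compound, 48 h, 5 concentrations. 3) Linear interpolation between surrounding doses. 4) Unreached endpoint = highest concentration. GI50 = concentration required for 50% inhibition of growth. TGI: total growth inhibition.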

What was measured:
Experiment in all cases: inhibition of tumour cell growth, NCI panel, 48 h
A498 renal = test system: A498 renal
UO-31 renal = test system: UO-31 renal
EKVX NSCLC = test system: EKVX NSCLC
ACHN renal = test system: ACHN renal
SK-MEL-2 melanoma = test system: SK-MEL-2 melanoma
U251 CNS = test system: U251 CNS
MOLT-4 leukemia = test system: MOLT-4 leukemia
SNB-19 CNS = test system: SNB-19 CNS
COLO 205 colon = test system: COLO 205 colon
SNB-75 CNS = test system: SNB-75 CNS

SMILES | GI50 (A498 renal) | GI50 (UO-31 renal) | TGI (UO-31 renal) | TGI (EKVX NSCLC) | GI50 (ACHN renal) | GI50 (SK-MEL-2 melanoma) | TGI (SK-MEL-2 melanoma) | GI50 (U251 CNS) | TGI (U251 CNS) | GI50 (MOLT-4 leukemia) | TGI (MOLT-4 leukemia) | TGI (SNB-19 CNS) | GI50 (COLO 205 colon) | TGI (ACHN renal) | TGI (COLO 205 colon) | TGI (SNB-75 CNS) | TGI (A498 renal) | GI50 (EKVX NSCLC) | GI50 (SNB-19 CNS) | GI50 (SNB-75 CNS)
NC(=Nc1nc(-c2ccccn2)cc2ccccc12)c1ccccn1 | 0.0283 µM | 0.239 µM | 0.921 µM and 1.96 µM | > 17.2 µM | 0.0115 µM | 0.477 µM and 0.272 µM | > 89.3 µM | 0.111 µM | 18.6 µM | 0.00109 µM | 0.0283 µM | > 89.5 µM | 0.00195 µM | – | – | – | – | – | – | –
CCOC(=O)NC(=O)c1cn(CCN2CCNCC2)c(=O)[nH]c1=O | – | – | – | > 100 µM | – | – | > 100 µM | – | > 100 µM | – | > 100 µM | > 100 µM | – | > 100 µM | > 100 µM | – | – | – | – | –
C[C@@H]1CC[C@@H]2[C@@H](C)C[C@H]3[C@@H]4C(C)(C)OC(=O)[C@]4(C)C(=O)[C@@]23C1=O | – | > 100 µM | > 100 µM | > 100 µM | – | > 100 µM | > 100 µM | 31.9 µM | > 100 µM | – | > 100 µM | > 100 µM | – | > 100 µM | > 100 µM | > 100 µM | – | – | – | –
C/C=C(/C)C(=O)OC1C=C(CO)C(=O)C(OC(=O)C(C)(O)C(C)Cl)C1C(C)C (stereo unspecified) | 1.9 µM | 1.34 µM | 2.64 µM | 4.9 µM | 0.829 µM | 2.06 µM | 4.29 µM | 1.38 µM | 2.8 µM | 0.301 µM | 4.88 µM | 2.91 µM | 1.3 µM | 2.06 µM | 2.85 µM | – | 3.87 µM | 2.19 µM | 1.48 µM | –
COC(=O)C(=O)C(C(=O)C(=O)Nc1ccc(C)cc1)c1nc2ccc(C(=O)c3ccccc3)cc2[nH]c1=O (stereo unspecified) | – | – | > 100 µM | > 100 µM | – | – | > 100 µM | – | > 100 µM | – | – | > 100 µM | – | > 100 µM | – | > 100 µM | > 100 µM | – | – | –
CC1=C2[C@H](c3ccccc3)C3C=CC2(c2ccccc23)N(C(=O)C(c2ccccc2)c2ccccc2)C1=O (stereo partly specified) | – | – | > 100 µM | > 100 µM | – | – | – | – | > 100 µM | – | > 100 µM | > 100 µM | – | > 100 µM | > 100 µM | > 100 µM | > 100 µM | – | – | –
CC(=O)O/N=C(Cl)/C(Cl)=N/OC(C)=O | – | – | > 100 µM | > 100 µM | – | – | > 100 µM | – | > 100 µM | – | > 100 µM | > 100 µM | – | > 100 µM | – | > 100 µM | > 100 µM | – | – | –
Cc1cc(C)nc(NS(=O)(=O)c2ccc(NC(=O)c3ccc(Cl)c4c(Nc5ccc(S(=O)(=O)N=C(N)N)cc5)c5ccccc5nc34)cc2)n1 | – | – | > 100 µM | > 100 µM | – | – | – | – | > 100 µM | – | 63.2 µM | > 100 µM | – | > 100 µM | > 100 µM | > 100 µM | > 100 µM | – | – | –
COc1cc(CC(C(=O)O)C(=O)O)c(OC)cc1CC(C(=O)O)C(=O)O | – | – | > 100 µM | > 100 µM | – | – | – | – | > 100 µM | – | > 100 µM | > 100 µM | – | – | > 100 µM | > 100 µM | > 100 µM | – | – | –
Cc1ccc(NC(=O)CC/C(CC(=O)C(C)(C)C)=N\Nc2ccc([N+](=O)[O-])cc2[N+](=O)[O-])cc1C | – | – | > 100 µM | > 100 µM | – | – | > 100 µM | – | > 100 µM | – | > 100 µM | > 100 µM | – | > 100 µM | > 100 µM | – | – | – | – | –
CN(C)CCC1(C2=CCCC2)CC/C(=C\c2ccccc2Cl)C1=O (stereo unspecified) | – | – | 20.1 µM | 29.3 µM | – | – | 27.6 µM | – | 25.5 µM | – | 18.3 µM | 27.8 µM | – | 31.1 µM | 41 µM | – | 28.4 µM | – | – | –
CC(=N)N(C)O | – | – | > 100 µM | > 100 µM | – | – | > 100 µM | – | > 100 µM | – | > 100 µM | – | – | > 100 µM | 33.2 µM | > 100 µM | > 100 µM | – | – | –
O=C(O)CCSC(=O)Nc1ccccc1Cl | – | – | > 100 µM | > 100 µM | – | – | – | – | > 100 µM | – | > 100 µM | > 100 µM | – | > 100 µM | > 100 µM | > 100 µM | > 100 µM | – | – | –
COc1ccc2c(c1)C(=O)c1c-2n(CCCN)c(=O)c2cc(OC)c(OC)cc12 | 1.89 µM | 1.19 µM | 2.72 µM | 3.67 µM | 0.0397 µM | 2.55 µM | – | 0.0491 µM | 1.63 µM | < 0.01 µM | – | – | – | 1.14 µM | – | 2.55 µM | 5.59 µM | 1.83 µM | – | 1.16 µM
COc1ccc(/C=c2/sc3n(c2=O)NC(c2ccc(Cl)cc2)NN=3)cc1 (stereo unspecified) | – | – | > 100 µM | > 100 µM | – | – | > 100 µM | – | > 100 µM | – | > 100 µM | > 100 µM | – | – | > 100 µM | 78.1 µM | – | – | – | –
C/C(CCn1[nH]c(=O)ccc1=O)=N\Nc1ccc([N+](=O)[O-])cc1[N+](=O)[O-] | – | – | > 100 µM | > 100 µM | – | – | > 100 µM | – | – | – | > 100 µM | > 100 µM | – | > 100 µM | – | > 100 µM | > 100 µM | – | – | –
COc1ccc(CNc2cnc3cc(N)cc(N)c3n2)cc1 | – | 16.3 µM | 33.7 µM | 31.1 µM | 17.2 µM | 23.9 µM | 76.3 µM | 17.2 µM | 32.5 µM | 15.9 µM | 43.2 µM | > 100 µM | 33.6 µM | 32.2 µM | > 100 µM | > 100 µM | – | 14.4 µM | 52.3 µM | 42.8 µM
C#CCN(N=O)C(=O)NCCCC(NC(C)=O)C(=O)NCc1ccccc1 (stereo unspecified) | – | – | > 100 µM | > 100 µM | – | – | – | – | > 100 µM | – | > 100 µM | > 100 µM | – | > 100 µM | > 100 µM | > 100 µM | > 100 µM | – | – | –
CC(=O)C1CCC2C3CC=C4CC(SC(=N)N)CCC4(C)C3CCC12C (stereo unspecified) | 1.19 µM | 2.36 µM | 7.54 µM | 6.88 µM | – | – | – | – | – | 1.78 µM | 4.19 µM | 32.1 µM | 1.6 µM | – | 2.94 µM | 4.15 µM | 3.73 µM | 1.43 µM | 3.12 µM | 1.58 µM
Nc1ccc2c(c1)Oc1c(F)c(F)cc3c(=O)c(C(=O)O)cn-2c13 | – | – | 93.7 µM | > 100 µM | – | – | > 100 µM | – | > 100 µM | – | > 100 µM | > 100 µM | – | – | > 100 µM | – | 49.7 µM | – | – | –
C=C1NC(=O)C(CC(C(=O)C(=O)Nc2c(C)cccc2C(C)(C)C)C(=O)c2ccc3ccccc3c2)C(=O)N1 (stereo unspecified) | – | – | > 100 µM | – | – | – | > 100 µM | – | > 100 µM | – | > 100 µM | > 100 µM | – | > 100 µM | > 100 µM | > 100 µM | > 100 µM | – | – | –
